According to US9453062B2, “Glucose dependent insulinotropic polypeptide analogs, pharmaceutical compositions and use thereof” (Beijing Hanmi Pharmaceutical Co., Ltd., priority 2011, dated 2016):
Like-named read-outs stand apart in the source and are kept apart here. Where a SMILES comes first, the peptide text is derived from it. Bridges are numbered along the chain shown (N, C = ends). [ ]: non-standard residue; d: D form. The star is where a group is joined. Palmitoyl = CCCCCCCCCCCCCCCC(=O)*; Aib = CC(C)(N)C(=O)O

Key:
hGLP-1R = molecular target: T1, hGLP-1R (Homo sapiens, UniProt P43220); test: hGLP-1R-mediated cAMP induction assay in CHO cell line; type: cell-based;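 also: CHO cells expressing human GLP-1R, treated 30 min at 37 °C, intracellular cAMP measured by competitive fluorescent immunoassay and converted via a cAMP standard curve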
T1 construct: expressed in transfected cells; host or cells: CHO
T1 sequence (P43220 24-463): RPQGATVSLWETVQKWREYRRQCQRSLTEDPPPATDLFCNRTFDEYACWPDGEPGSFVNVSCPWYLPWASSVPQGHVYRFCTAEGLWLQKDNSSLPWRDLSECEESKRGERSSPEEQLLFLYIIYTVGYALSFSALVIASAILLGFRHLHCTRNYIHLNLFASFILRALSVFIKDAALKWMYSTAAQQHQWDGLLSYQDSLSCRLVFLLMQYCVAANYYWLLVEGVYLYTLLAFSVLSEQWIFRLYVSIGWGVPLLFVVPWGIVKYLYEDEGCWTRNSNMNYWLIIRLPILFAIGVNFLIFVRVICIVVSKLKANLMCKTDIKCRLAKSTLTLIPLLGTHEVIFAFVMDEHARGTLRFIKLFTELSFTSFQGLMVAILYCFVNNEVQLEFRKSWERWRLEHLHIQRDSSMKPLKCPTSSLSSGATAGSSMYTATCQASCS

hGIPR = molecular target: T2, hGIPR (Homo sapiens, UniProt P48546); test: hGIPR-mediated cAMP induction assay in CHO cell line; type: cell-based
T2 construct: expressed in transfected cells; host or cells: CHO
T2 sequence (P48546 22-466): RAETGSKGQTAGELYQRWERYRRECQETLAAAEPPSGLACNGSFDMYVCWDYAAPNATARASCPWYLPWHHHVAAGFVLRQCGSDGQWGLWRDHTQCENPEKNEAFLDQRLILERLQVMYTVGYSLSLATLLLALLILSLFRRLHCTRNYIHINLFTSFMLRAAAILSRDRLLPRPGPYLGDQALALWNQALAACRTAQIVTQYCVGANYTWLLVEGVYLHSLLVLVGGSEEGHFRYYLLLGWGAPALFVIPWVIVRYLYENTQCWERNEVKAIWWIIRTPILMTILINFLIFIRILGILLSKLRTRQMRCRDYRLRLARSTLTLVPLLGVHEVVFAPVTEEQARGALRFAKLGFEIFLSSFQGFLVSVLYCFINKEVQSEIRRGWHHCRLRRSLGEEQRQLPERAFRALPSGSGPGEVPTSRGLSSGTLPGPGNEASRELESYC

## CCCCCCCCCCCCCCCC(=O)NCCCC[C@H](NC(=O)[C@H](CO)NC(=O)[C@@H]1CCCN1C(=O)[C@@H]1CCCN1C(=O)[C@@H]1CCCN1C(=O)[C@H](C)NC(=O)CNC(=O)[C@H](CO)NC(=O)[C@H](CO)NC(=O)[C@@H]1CCCN1C(=O)CNC(=O)CNC(=O)[C@@H]1CCCCNC(=O)CC[C@H](NC(=O)[C@@H](NC(=O)[C@H](Cc2ccccc2)NC(=O)[C@H](CCC(=O)O)NC(=O)[C@H](CCCCN)NC(=O)[C@@H](NC(=O)[C@H](C)NC(=O)[C@H](CCC(=O)O)NC(=O)[C@H](CCCCN)NC(=O)[C@H](CCC(=O)O)NC(=O)[C@H](CCSC)NC(=O)[C@H](Cc2ccc(O)cc2)NC(=O)[C@@H](NC(=O)[C@H](CO)NC(=O)[C@H](Cc2ccc(O)cc2)NC(=O)[C@H](CC(=O)O)NC(=O)[C@H](CO)NC(=O)[C@@H](NC(=O)[C@H](Cc2ccccc2)NC(=O)[C@@H](NC(=O)CNC(=O)[C@H](CCC(=O)O)NC(=O)C(C)(C)NC(=O)[C@@H](N)Cc2ccc(O)cc2)[C@@H](C)O)[C@@H](C)O)[C@@H](C)CC)C(C)C)[C@@H](C)CC)C(=O)N[C@@H](Cc2c[nH]c3ccccc23)C(=O)N[C@@H](CC(C)C)C(=O)N[C@@H](C(C)C)C(=O)N1)C(N)=O [Compound 102] (H-Y[Aib]EGTFTSDYSIYMEKEAVKEFIEWLVKGGPSSGAPPPSK(Palmitoyl)-NH2; lactam 24-28; N-terminus assumed)
hGLP-1R; Table 3, CHO hGLP1R cells
  EC50: 0.069 nM
hGLP-1R; Table 3, against native GLP-1
  GLP-1 Receptor Relative Potency: 510.1
hGIPR; Table 3, CHO hGIPR cells
  EC50: 0.015 nM
hGIPR; Table 3, against native GIP
  GIP Receptor Relative Potency: 460

## CC[C@H](C)[C@H](NC(=O)[C@H](CO)NC(=O)[C@H](Cc1ccc(O)cc1)NC(=O)[C@H](CC(=O)O)NC(=O)[C@H](CO)NC(=O)[C@@H](NC(=O)[C@H](Cc1ccccc1)NC(=O)[C@@H](NC(=O)CNC(=O)[C@H](CCC(=O)O)NC(=O)C(C)(C)NC(=O)[C@@H](N)Cc1ccc(O)cc1)[C@@H](C)O)[C@@H](C)O)C(=O)N[C@@H](Cc1ccc(O)cc1)C(=O)N[C@@H](CCSC)C(=O)N[C@@H](CCC(=O)O)C(=O)N[C@@H](CCCCN)C(=O)N[C@@H](CCC(=O)O)C(=O)N[C@@H](C)C(=O)N[C@H](C(=O)N[C@@H](CCCNC(=N)N)C(=O)N[C@@H](CCC(=O)O)C(=O)N[C@@H](Cc1ccccc1)C(=O)N[C@H](C(=O)N[C@@H](CS)C(=O)N[C@@H](Cc1c[nH]c2ccccc12)C(=O)N[C@@H](CC(C)C)C(=O)N[C@H](C(=O)N[C@@H](CCCCN)C(=O)NCC(=O)NCC(=O)N1CCC[C@H]1C(=O)N[C@@H](CO)C(=O)N[C@@H](CO)C(=O)NCC(=O)N[C@@H](C)C(=O)N1CCC[C@H]1C(=O)N1CCC[C@H]1C(=O)N1CCC[C@H]1C(=O)N[C@@H](CO)C(=O)N[C@@H](CCCCN)C(N)=O)C(C)C)[C@@H](C)CC)C(C)C [Compound 105] (H-Y[Aib]EGTFTSDYSIYMEKEAVREFICWLVKGGPSSGAPPPSK-NH2; N-terminus assumed)
hGLP-1R; Table 3, CHO hGLP1R cells
  EC50: 3.94 nM
hGIPR; Table 3, CHO hGIPR cells
  EC50: 0.4 nM

## CC[C@H](C)[C@H](NC(=O)[C@H](Cc1ccccc1)NC(=O)[C@H](CCC(=O)O)NC(=O)[C@H](CCCNC(=N)N)NC(=O)[C@@H](NC(=O)[C@H](C)NC(=O)[C@H](CCC(=O)O)NC(=O)[C@H](CCCCN)NC(=O)[C@H](CCC(=O)O)NC(=O)[C@H](CCSC)NC(=O)[C@H](Cc1ccc(O)cc1)NC(=O)[C@@H](NC(=O)[C@H](CO)NC(=O)[C@H](Cc1ccc(O)cc1)NC(=O)[C@H](CC(=O)O)NC(=O)[C@H](CO)NC(=O)[C@@H](NC(=O)[C@H](Cc1ccccc1)NC(=O)[C@@H](NC(=O)CNC(=O)[C@H](CCC(=O)O)NC(=O)C(C)(C)NC(=O)[C@@H](N)Cc1ccc(O)cc1)[C@@H](C)O)[C@@H](C)O)[C@@H](C)CC)C(C)C)C(=O)N[C@@H](C)C(=O)N[C@@H](Cc1c[nH]c2ccccc12)C(=O)N[C@@H](CC(C)C)C(=O)N[C@H](C(=O)N[C@@H](CCCCN)C(=O)NCC(=O)NCC(=O)N1CCC[C@H]1C(=O)N[C@@H](CO)C(=O)N[C@@H](CO)C(=O)NCC(=O)N[C@@H](C)C(=O)N1CCC[C@H]1C(=O)N1CCC[C@H]1C(=O)N1CCC[C@H]1C(=O)N[C@@H](CO)C(=O)N[C@@H](CCCCNC(=O)CCCCCCCCCCCCCCC(=O)O)C(N)=O)C(C)C [Compound 106]
hGLP-1R; Table 3, CHO hGLP1R cells
  EC50: 0.922 nM
hGLP-1R; Table 3, against native GLP-1
  GLP-1 Receptor Relative Potency: 157.8
hGIPR; Table 3, CHO hGIPR cells
  EC50: 0.097 nM
hGIPR; Table 3, against native GIP
  GIP Receptor Relative Potency: 67.0

## CCCCCCCCCCCCCCCC(=O)NCCCC[C@H](NC(=O)[C@H](CO)NC(=O)[C@@H]1CCCN1C(=O)[C@@H]1CCCN1C(=O)[C@@H]1CCCN1C(=O)[C@H](C)NC(=O)CNC(=O)[C@H](CO)NC(=O)[C@H](CO)NC(=O)[C@@H]1CCCN1C(=O)CNC(=O)CNC(=O)[C@H](CCCCN)NC(=O)[C@@H](NC(=O)[C@H](CC(C)C)NC(=O)[C@H](Cc1c[nH]c2ccccc12)NC(=O)[C@H](C)NC(=O)[C@@H](NC(=O)[C@H](Cc1ccccc1)NC(=O)[C@H](CCC(=O)O)NC(=O)[C@H](CCCNC(=N)N)NC(=O)[C@@H](NC(=O)[C@H](C)NC(=O)[C@H](CCC(=O)O)NC(=O)[C@H](CCCCN)NC(=O)[C@H](CCC(=O)O)NC(=O)[C@H](CCSC)NC(=O)[C@H](Cc1ccc(O)cc1)NC(=O)[C@@H](NC(=O)[C@H](CO)NC(=O)[C@H](Cc1ccc(O)cc1)NC(=O)[C@H](CC(=O)O)NC(=O)[C@H](CO)NC(=O)[C@@H](NC(=O)[C@H](Cc1ccccc1)NC(=O)[C@@H](NC(=O)CNC(=O)[C@H](CCC(N)=O)NC(=O)C(C)(C)NC(=O)[C@@H](N)Cc1ccc(O)cc1)[C@@H](C)O)[C@@H](C)O)[C@@H](C)CC)C(C)C)[C@@H](C)CC)C(C)C)C(N)=O [Compound 120] (H-Y[Aib]QGTFTSDYSIYMEKEAVREFIAWLVKGGPSSGAPPPSK(Palmitoyl)-NH2)
hGLP-1R; Table 3, CHO hGLP1R cells
  EC50: 0.253 nM
hGLP-1R; Table 3, against native GLP-1
  GLP-1 Receptor Relative Potency: 586.6
hGIPR; Table 3, CHO hGIPR cells
  EC50: 0.039 nM
hGIPR; Table 3, against native GIP
  GIP Receptor Relative Potency: 294.9

## CC[C@H](C)[C@H](NC(=O)[C@H](Cc1ccccc1)NC(=O)[C@H](CCC(=O)O)NC(=O)[C@H](CCCNC(=N)N)NC(=O)[C@@H](NC(=O)[C@H](C)NC(=O)[C@H](CCC(=O)O)NC(=O)[C@H](CCCCN)NC(=O)[C@H](CCC(=O)O)NC(=O)[C@H](CCSC)NC(=O)[C@H](Cc1ccc(O)cc1)NC(=O)[C@@H](NC(=O)[C@H](CO)NC(=O)[C@H](Cc1ccc(O)cc1)NC(=O)[C@H](CC(=O)O)NC(=O)[C@H](CO)NC(=O)[C@@H](NC(=O)[C@H](Cc1ccccc1)NC(=O)[C@@H](NC(=O)CNC(=O)[C@H](CCC(=O)O)NC(=O)C(C)(C)NC(=O)[C@@H](N)Cc1ccc(O)cc1)[C@@H](C)O)[C@@H](C)O)[C@@H](C)CC)C(C)C)C(=O)N[C@@H](C)C(=O)N[C@@H](Cc1c[nH]c2ccccc12)C(=O)N[C@@H](CC(C)C)C(=O)N[C@H](C(=O)N[C@@H](CCCCN)C(=O)NCC(N)=O)C(C)C [Compounds 023] (H-Y[Aib]EGTFTSDYSIYMEKEAVREFIAWLVKG-NH2)
hGLP-1R; Table 1, CHO/hGLP-1R cells, read-out: GLP-1R EC50
  EC50: 1.28 nM
hGLP-1R; Table 1, against native GLP-1
  GLP-1R Relative Potency: 75%
hGLP-1R; Table 3, against native GLP-1
  GLP-1 Receptor Relative Potency: 75
hGIPR; Table 1, CHO/hGIPR cells, read-out: GIPR EC50
  EC50: 0.088 nM
hGIPR; Table 1, against native GIP
  GIPR Relative Potency: 106.8%
hGIPR; Table 3, against native GIP
  GIP Receptor Relative Potency: 106.8
